From patent US6015831A, “Thiophene nitrone compounds” (Centaur Pharmaceuticals, Inc., priority 1999, dated 2000)

What was measured:
[1] = test system: IL-1β release, THP-1 cells; assay: Reduction of β-amyloid-induced increased release of interleukin-1β in LPS-stimulated THP-1 cells (ELISA); format: cell-based; details: Homo sapiens, test compound 100 μM, LPS 0.5 μg/mL + Aβ(25-35) 5 μM, 48 hours, stated as alternative: this 'or' Aβ(1-42) sheet formation, tested in at least one test, read-out: inhibition of β-amyloid-induced increase release of interleukin-1β compared to the controls
Method: THP-1 cells, a human monocyte cell line from American Type Culture Collection, were grown in RPMI-1640 medium plus 10% fetal bovine serum (FBS, not heat-inactivated) in T-flasks. The medium was changed every two days by spinning down the cells (800 rpm, 5 minutes) and adding the same fresh medium. Alternatively, the cultures were maintained by supplementation with fresh medium. The cultures were maintained at a cell concentration ranging from between 1×10^5 and 1×10^6 cells/mL. Because sera may contain unknown factors which can affect macrophage/monocyte IL-1 production, the FBS was reduced to 5% for 24 hours. The FBS was further reduced to 2% over two days prior to starting each experiment. The cells were collected by centrifugation and resuspended in media containing 2% FBS. Cell numbers were calculated and cells were plated on 24-well plates (3×10^5 cells/0.6 mL/well). Cells were then treated with LPS (0.5 μg/mL) alone or in combination with Aβ peptides (5 μM). […]
1L-1β secretions into medium by LPS-stimulated THP-1 cells, in the presence or absence of amyloid peptides and a test compound, were assayed with a commercially available ELISA kit (R & D Systems). […] Color development was stopped with 2 N sulfuric acid and the optical density of the standard and the test samples was measured at 450 nm. The amount of IL-1β present in the samples were calculated based upon a standard curve. […]

synthetic Aβ(1-42) = assay: Inhibition of Aβ beta-pleated sheet formation (thioflavin T fluorescence); format: biochemical; details: test compound 10 μM, ThT 3 μM, PBS pH 6.0, 12 hours; stated as alternative: this 'or' IL-1β release, tested in at least one test
Description: The deposition of amyloid β-peptide (Aβ) is associated with the development of Alzheimer's disease. See, for example, G. G. Glenner et al. (1984) Biochem. Biophys. Res. Commun., 120:885-890; and R. E. Tanzi (1989) Ann. Med, 21:91-94. Accordingly, compounds which effectively disrupt the formation of Aβ(1-40) or Aβ(1-42) beta-pleated sheets are potentially useful for preventing and/or reversing such amyloid deposits. Thioflavin T (ThT) is known to rapidly associate with beta-pleated sheets, particularly the aggregated fibrils of synthetic Aβ(1-42). This association gives rise to an excitation maximum at 440 nm and to an emission at 490 nm.
The experiments were performed using a CytoFluor II fluorescence plate reader having the following parameters:
Into each well was aliquoted 95 μl of ThT (3 μM) prepared in PBS (pH 6.0), 2 μL of the compound to be tested (10 μM) prepared with 0.05% of methylcellulose in PBS (pH 6.0), and 3 μL of Aβ(1-42)(3 μg) prepared with dH2 O. The fluorescence measurement began when the Aβ(1-42) was added and continued for a total of 12 hours. The percent inhibition of beta-pleated sheet formation was calculated from the relative fluorescence unit difference between aggregation in the presence and in the absence of the test compounds. Inhibition of Aβ(1-42) beta-pleated sheet formation by at least 30% compared to the controls is considered significant in this test.

Structure (SMILES)	inhibition at 100 µM [1] [%]	inhibition of Aβ(1-42) beta-pleated sheet formation compared to the controls (synthetic Aβ(1-42))
COc1ccc(Sc2ccc(C=[N+]([O-])C(C)(C)C)s2)cc1 [Example 1, α-[2-(4-Methoxyphenylthio)-5-thienyl]-N-tert-butylnitrone]	≥ 30	at least 30%
COc1ccc(Sc2ccc(C=[N+]([O-])C3CCCCC3)s2)cc1 [Example 2, α-[2-(4-Methoxyphenylthio)-5-thienyl]-N-cyclohexylnitrone]	≥ 30	at least 30%
